Reference: patent publication US9801854B1, “Slow release formulations of cell cycle regulators and anti-cancer agents for local treatment of solid cancer” (THERACOAT LTD., priority 2014, dated 2017)
Like-named read-outs stand apart in the source and are kept apart here.

Assays:
Assay type in all cases: cell-based, human
[1] = system: UM-UC-3 cells; assay: XTT cytotoxicity assay; conditions: for EC50: read-out: EC50 (cell viability); for viability at 1000 µM: Homo sapiens, 1 mM HU 20 hours, wash, untreated cells = 100%
Procedure: Cells were washed in media to inactivate trypsin before reseeding or analysis.
Hydroxyurea concentrations were selected based upon concentration ranges known in the art.
XTT assay for cytotoxicity was then performed and plates were analyzed in an ELISA reader at a wave length of 490 nm.
Cells were pretreated with 1 mM HU (or DMSO-vehicle control) for 20 hours. […] The percentage of viable cells presented was calculated from untreated cells with viability of 100%.
UM-UC-3 cells were cultured in 96 well microculture plates. Cells were pretreated with 1 mM HU (or DMSO-vehicle control) for 20 hours. Cells were then washed. […] The percentage of viable cells presented was calculated from untreated cells with viability of 100%.
The methods used were as described in the other examples. Briefly, UM-UC-3 cells were cultured in 96 well microculture plates. Cells were pretreated with 1 mM HU (or DMSO-vehicle control) for 2 hours. […] The percentage of viable cells presented in the figures and table was calculated from untreated cells with viability of 100%.

[2] = system: UM-UC-3 cells; assay: Cell cycle analysis by flow cytometry (PI staining) after HU exposure and withdrawal; conditions: 1 mM HU for 20 hours, wash, 2-10 hours without drug, majority in S phase 4 to 8 hours after wash
Procedure: (§1) The human bladder cancer cell lines, UM-UC-3 and RT-4, were obtained from the ATCC and grown in RPMI 1640 medium (Gibco) supplemented with 10% v/v fetal calf serum (Gibco), 100 U/ml penicillin and 100 µg/ml streptomycin (Biological Industries). Cells were grown at 37° C., 5% CO2 in a humidified atmosphere and harvested using 0.25% w/v trypsin, 0.02% w/v EDTA. Cells were washed in media to inactivate trypsin before reseeding or analysis. A LSRII Flow cytometer or Cyan Flow Cytometer were used for determining DNA content and cell cycle distribution of UM-UC-3 and RT-4 cells. Cells were seeded in 6 well plates (10^6 cells/well) and incubated overnight. […] When sequential treatment was done, the second drug was administered immediately or 2-48 hours following the wash of the 1st treatment. The 2nd treatment was then applied for additional 2-48 hrs before analysis. […] PI staining was identified by using the red fluorescence (585+/−40 nm). In some experiments, cells harvested as for cell cycle determination were also stained with Annexin V or anti-activated Caspase-3 antibody for identifying apoptotic cells. Annexin V or activated Caspase-3 positive cells were identified using the green fluorescence (530+/−30 nm).

[3] = system: RT-4 cells; assay: as above; conditions: 1 mM HU for 20 hours, wash, 2-10 hours without drug, majority in S phase 4 to 8 hours after wash
Procedure: as §1

Row | Structure (SMILES) | EC50 ([1]; Example 3 conditions: UM-UC-3, MMC 24 hours, XTT) | EC50 ([1]; Example 4 conditions: UM-UC-3, MMC 8 hours, XTT 48 hours after MMC addition) | viability at 1000 µM ([1]; UMUC3, Example 3: UM-UC-3, 20 μM MMC, XTT 24 hours after MMC addition) | viability at 1000 µM ([1]; UMUC3, Example 4: UM-UC-3, 2 hours delay, 10 μM MMC 8 hours, XTT 48 hours after MMC addition) | cell cycle arrest / synchronization in S phase [2] | cell cycle arrest / synchronization in S phase [3]
1 | CO[C@@]12[C@H](COC(N)=O)C3=C(C(=O)C(C)=C(N)C3=O)N1C[C@@H]1N[C@@H]12 [MMC, Mitomycin C] | ~20 µM | 10 µM |  |  |  | 
2 | NC(=O)NO [HU, Hydroxyurea] |  |  | 76.5% | 59.6% | cell cycle synchronization at the S phase | cell cycle synchronization at the S phase
